Results reported in US7223759B2, “Antibacterial 3,5-diaminopiperidine-substituted aromatic and heteroaromatic compounds” (Anadys Pharmaceuticals, Inc., priority 2003, dated 2007).

Test system: Escherichia coli (ATCC25922) or Staphylococcus aureus (ATCC25923)
Experiment: Antibacterial MIC, microdilution method in Mueller-Hinton medium
Format: cell-based
Settings: Escherichia coli, 18 h, MIC in E. coli or S. aureus; two-fold serial dilutions 64 to 0.5 μg/ml in duplicate; 18 hours of incubation at 35° C.; read-out: Potency (MIC)
Procedure: The antibacterial activity of the Formula I compounds was evaluated against standard bacterial strains by determining the minimal inhibitory concentration (MIC) to block growth. Each drug was assayed by the microdilution method in Mueller-Hinton medium, as recommended by the National Committee for Clinical Laboratory Standards. Approved Standard M7-A5: Methods for Dilution Antimicrobial Susceptibility Tests for Bacteria That Grow Aerobically 5th Ed. (National Committee for Clinical Laboratory Standards, Wayne, Pa., 2000). The tested bacterial strains included Escherichia coli (American Type Collection ATCC25922), Staphylococcus aureus (ATCC25923), and Pseudomonas aeruginosa (ATCC27853). Two-fold serial dilutions of each compound ranging from 64 to 0.5 μg/ml were tested in duplicate. The MIC was determined as the lowest concentration of each compound that prevented bacterial growth after 18 hours of incubation at 35° C. […] The mass of each compound in the Table was confirmed by LC-MS.

SMILES	MIC [µg/mL]
Cl.O=C(Nc1ccc(Nc2cc(N3CCCCC3)cc(N3CCCCC3)c2)cc1)c1ccc2ccccc2c1O [1-Hydroxy-naphthalene-2-cxarboxylicacid {4-[3-((3R,5S)-3,5-diamino-piperidin-1-yl)-5-((3S,5R)-3,5-diamino-piperidin-1-yl)-phenylamino]-phenyl}-amide]	< 16
CC(=O)c1ccc(Nc2nc(N3CCCCC3)nc(N3CCCCC3)n2)cc1.Cl [1-{4-[4-((3R,4S)-3-Aminomethyl-4-hydroxy-piperidin-1-yl)-6-((3R,5S)-3,5-diamino-piperidin-1-yl)-[1,3,5]triazin-2-ylammino]-phenyl}-ethanone]	> 64
CC(=O)c1ccc(Nc2nc(N3C[C@H](N)C[C@H](N)C3)nc(N3C[C@H](O)C[C@@H](O)C3)n2)cc1 [1-{4-[4-((3R,5S)-3,5-Diamino-piperidin-1-yl)-6-((3R,5R)-3,5-dihydroxy-piperidin-1-yl)-[1,3,5]triazin-2-ylamino]-phenyl}-ethanone]	> 64
CC(=O)c1ccc(Nc2nc(N3C[C@H](N)C[C@H](N)C3)nc(N3C[C@@H](N)C[C@@H](O)C3)n2)cc1 [1-{4-[4-((3S,5R)-3-Amino-5-hydroxy-piperidin-1-yl)-6-((3R,5S)-3,5-diamino-piperidin-1-yl)-[1,3,5]triazin-2-ylamino]-phenyl}-ethanone]	> 64
COC(=O)c1c(N2C[C@H](N)C[C@H](N)C2)nc2ccccc2c1N1C[C@H](N)C[C@H](N)C1.Cl [2,4-Bis-((3R,5S)-3,5-diamino-piperidin-1-yl)-quinoline-3-carboxylic acidmethylester]	> 64
Cl.N[C@@H]1C[C@@H](N)CN(c2nc(N3CCC4CCCCC4C3)nc(N3C[C@H](N)C[C@H](N)C3)n2)C1 (stereo partly drawn) [2,4-Biss-((3R,5S)-3,5-diamino-piperidin-1-yl)-6-(4-p-tolyl-piperazin-1-yl)-[1,3,5]triazine]	> 64
COC(=O)c1ccccc1Nc1nc(N2C[C@H](N)C[C@H](N)C2)nc(N2C[C@H](N)C[C@H](N)C2)n1 [2-[4,6-Bis-((3R,5S)-3,5-diamino-piperidin-1-yl)-[1,3,5]triazin-2-ylamino]-benzoic acid methyl ester]	> 64
Cl.c1ccc(N2CCN(c3nc(N4CCCCC4)nc(N4CCCCC4)n3)CC2)nc1 [2-[4-(4-Fluoro-phenyl)-piperiazin-1-yl]-4,6-Bis-((3R,5S)-3,5-diamino-piperidin-1-yl)-[1,3,5]triazine]	> 64
Cl.Oc1cccc(C2CCN(c3nc(N4CCCCC4)nc(N4CCCCC4)n3)CC2)c1 [3-[1-(4,6-Bis-((3R,5S)-3,5-diamino-piperidin-1-yl)-[1,3,5]triazin-2-yl)-piperidin-4-yl]-phenyl]	> 64

Same assay, conditions: Escherichia coli, 18 h, read-out: Potency (MIC)

SMILES	MIC [µg/mL]
N[C@@H]1C[C@H](N)CN(c2nc3nc(Nc4ccc(NC(=O)c5ccc6ccccc6c5O)cc4)nc(N4C[C@H](N)C[C@H](N)C4)c3[nH]2)C1 [1-Hydroxy-naphthalene-2-carboxylicacid {4-[6-((3R,5S)-3,5-diamino-piperidin-1-yl)-8-((3S,5R)-3,5-diamino-piperidin-1-yl)-7H-purin-2-ylamino]-phenyl}-amide]	< 16
CC(=O)c1ccc(Nc2nc(N3C[C@H](N)C[C@H](N)C3)nc(N3CC[C@H](O)[C@@H]3CN)n2)cc1 [1-{4-[4-((2S,3S)-2-Aminomethyl-3-hydroxy-pyrrolidin-1-yl)-6-((3R,5S)-3,5-diamino-piperidin-1-yl)-[1,3,5]triazin-2-ylamino]-phenyl}-ethanone]	> 64
CC(=O)c1ccc(Nc2nc(N3C[C@H](N)C[C@H](N)C3)nc(N3C[C@H](O)C[C@H]3CN)n2)cc1 [1-{4-[4-((2S,4R)-2-Aminomethyl-4-hydroxy-pyrrolidin-1-yl)-6-((3R,5S)-3,5-diamino-piperidin-1-yl)-[1,3,5]triazin-2-ylamino]-phenyl}-ethanone]	> 64
CC(=O)c1ccc(Nc2nc(N3C[C@H](N)C[C@H](N)C3)nc(N3C[C@@H](N)C[C@H]3CN)n2)cc1 [1-{4-[4-((2S,4S)-4-Amino-2-aminomethyl-pyrrolidin-1-yl)-6-((3R,5S)-3,5-diamino-piperidin-1-yl)-[1,3,5]triazin-2-ylamino]-phenyl}-ethanone]	> 64
CC(=O)c1ccc(Nc2nc(N3C[C@H](N)C[C@H](N)C3)nc(N3C[C@@H](N)C[C@H]3CO)n2)cc1 [1-{4-[4-((2S,4S)-4-Amino-2-hydroxymethyl-pyrrolidin-1-yl)-6-((3R,5S)-3,5-diamino-piperidin-1-yl)-[1,3,5]triazin-2-ylamino]-phenyl}-ethanone]	> 64
CC(=O)c1ccc(Nc2nc(N3C[C@H](N)C[C@H](N)C3)nc(N3C[C@@H](N)[C@@H](N)C3)n2)cc1 [1-{4-[4-((3R,5S)-3,5-Diamino-piperidin-1-yl)-6-((3R,4S)-3,4-diamino-pyrrolidin-1-yl)-[1,3,5]triazin-2-ylamino]-phenyl}-ethanone]	> 64
CC(=O)c1ccc(Nc2nc(N3C[C@H](N)C[C@H](N)C3)nc(N3C[C@@H](O)[C@@H](O)C3)n2)cc1 [1-{4-[4-((3R,5S)-3,5-Diamino-piperidin-1-yl)-6-((3R,4S)-3,4-dihydroxy-pyrrolidin-1-yl)-[1,3,5]triazin-2-ylamino]-phenyl}-ethanone]	> 64
CC(=O)c1ccc(Nc2nc(N3C[C@H](N)C[C@H](N)C3)nc(N3CCC[C@@H](O)C3)n2)cc1 [1-{4-[4-((3R,5S)-3,5-Diamino-piperidin-1-yl)-6-((R)-3-hydroxy-piperidin-1-yl)-[1,3,5]triazin-2-ylamino]-phenyl}-ethanone]	> 64
COc1nc(Nc2ccc(C(C)=O)cc2)nc(N2C[C@H](N)C[C@H](N)C2)n1 [1-{4-[4-((3R,5S)-3,5-Diamino-piperidin-1-yl)-6-methoxy-[1,3,5]triazin-2-ylamino]-phenyl}-ethanone]	> 64
CC(=O)c1ccc(Nc2nc(N(CCN)CCN)nc(N3C[C@H](N)C[C@H](N)C3)n2)cc1 [1-{4-[4-[Bis-(2-amino-ethyl)-amino]-6-((3R,5S)-3,5-diamino-piperidin-1-yl)-[1,3,5]triazin-2-ylamino]-phenyl}-ethanone]	< 64
N[C@@H]1C[C@H](N)CN(c2nc(NNC(=O)c3ccccc3O)nc(N3C[C@H](N)C[C@H](N)C3)n2)C1 [2-Hydroxy-benzoicacid N′-[4-((3R,5S)-3,5-diamino-piperidin-1-yl)-6-((3S,5R)-3,5-diamino-piperidin-1-yl)-[1,3,5]triazin-2-yl]-hydrazide]	< 64
NC[C@@H]1C[C@@H](O)CN1c1nc(Nc2ccc3c(c2)C(=O)c2ccccc2-3)nc(N2C[C@H](N)C[C@H](N)C2)n1 [2-[4-((2S,4R)-2-Aminomethyl-4-hydroxy-pyrrolidin-1-yl)-6-((3R,5S)-3,5-diamino-piperidin-1-yl)-[1,3,5]triazin-2-ylamino]-fluoren-9-one]	> 64
NC[C@@H]1C[C@H](N)CN1c1nc(Nc2ccc3c(c2)C(=O)c2ccccc2-3)nc(N2C[C@H](N)C[C@H](N)C2)n1 [2-[4-((2S,4S)-4-Amino-2-aminomethyl-pyrrolidin-1-yl)-6-((3R,5S)-3,5-diamino-piperidin-1-yl)-[1,3,5]triazin-2-ylamino]-fluoren-9-one]	> 64
COc1nc(Nc2ccc3c(c2)C(=O)c2ccccc2-3)nc(N2C[C@H](N)C[C@H](N)C2)n1 [2-[4-((3R,5S)-3,5-Diamino-piperidin-1-yl)-6-methoxy-[1,3,5]triazin-2-ylamino]-fluoren-9-one]	> 64
NCCNc1nc(Nc2ccc3c(c2)-c2ccccc2C3=O)nc(N2C[C@H](N)C[C@H](N)C2)n1 [3-[4-(2-Amino-ethylamino)-6-((3R,5S)-3,5-diamino-piperidin-1-yl)-[1,3,5]triazin-2-ylamino]-fluoren-9-one]	> 64
NC[C@@H]1CN(c2nc(Nc3ccc4c(c3)-c3ccccc3C4=O)nc(N3C[C@H](N)C[C@H](N)C3)n2)CC[C@@H]1O [3-[4-((3R,4S)-3-Aminomethyl-4-hydroxy-piperidin-1-yl)-6-((3R,5S)-3,5-diamino-piperidin-1-yl)-[1,3,5]triazin-2-ylamino]-fluoren-9-one]	> 64
NC[C@@H]1C[C@H](CN)CN(c2nc(Nc3ccc4c(c3)-c3ccccc3C4=O)nc(N3C[C@H](N)C[C@H](N)C3)n2)C1 [3-[4-((3R,5S)-3,5-Bis-(aminomethyl)-piperidin-1-yl)-6-((3R,5S)-3,5-diamino-piperidin-1-yl)-[1,3,5]triazin-2-ylamino]-fluoren-9-one]	< 64
N[C@@H]1C[C@H](N)CN(c2nc(Nc3ccc4c(c3)-c3ccccc3C4=O)nc(N3C[C@@H](N)[C@@H](N)C3)n2)C1 [3-[4-((3R,5S)-3,5-Diamino-piperidin-1-yl)-6-((3R,4S)-3,4-diamino-pyrrolidin-1-yl)-[1,3,5]triazin-2-ylamino]-fluoren-9-one]	< 64
N[C@@H]1C[C@H](N)CN(c2nc(Nc3ccc4c(c3)-c3ccccc3C4=O)nc(N3C[C@@H](O)[C@@H](O)C3)n2)C1 [3-[4-((3S,5R)-3,5-Diamino-piperidin-1-yl)-6-((3R,4S)-3,4-dihydroxy-pyrrolidin-1-yl)-[1,3,5]triazin-2-ylamino}-fluoren-9-one]	> 64

Same assay, conditions: MIC in E. coli or S. aureus; two-fold serial dilutions 64 to 0.5 μg/ml in duplicate; 18 hours of incubation at 35° C.

SMILES	Potency (MIC)
CC(=O)c1ccc(Nc2nc(N3C[C@H](N)C[C@H](N)C3)nc(N3C[C@H](CN)C[C@H](CN)C3)n2)cc1 [1-{4-[4-((3S,5R)-3,5-Bis-(aminomethyl)-piperidin-1-tl)-6-((3R,5S)-3,5-diamino-piperidin-1-l)-[1,3,5]triazin-2-ylamino]-phenyl}-ethanone]	− (− means MIC>64 μg/ml in E. coli or S. aureus)
